The NIST ThermoML archive (doi:10.1016/j.jct.2018.09.024)

Key:
[1] = 101.33 kPa, Liquid, Laser flash apparatus
[2] = molar heat capacity at constant pressure; conditions: 101.33 kPa, Liquid, DSC

CCCCCCCCCCC(=O)OC [methyl undecanoate]
Conditions	molar heat capacity at constant pressure, [2] [J/K/mol]	thermal diffusivity, [1] [m2/s]
303.15 K	411.4	8.22e-08
313.15 K	415.9	8.1e-08
323.15 K	420.9	7.98e-08
333.15 K	426.1	7.86e-08
343.15 K	431.4	7.74e-08
353.15 K	436.7	7.62e-08
363.15 K	441.8	7.5e-08
373.15 K	446.5	7.38e-08
383.15 K	–	7.26e-08
393.15 K	–	7.14e-08
403.15 K	–	7.02e-08
413.15 K	–	6.9e-08
423.15 K	–	6.78e-08

CCCCCC(=O)OC [methyl hexanoate]
Conditions	molar heat capacity at constant pressure, [2] [J/K/mol]	thermal diffusivity, [1] [m2/s]
303.15 K	246.4	7.76e-08
313.15 K	248.8	7.66e-08
323.15 K	251.5	7.56e-08
333.15 K	254.6	7.46e-08
343.15 K	257.9	–
353.15 K	261.5	–
363.15 K	265.5	–
373.15 K	269.6	–

CCCCCCCCCCCC(=O)OC [methyl dodecanoate]
Conditions	molar heat capacity at constant pressure, [2] [J/K/mol]	thermal diffusivity, [1] [m2/s]
303.15 K	449	8.27e-08
313.15 K	452.8	8.15e-08
323.15 K	457.4	8.03e-08
333.15 K	462.6	7.91e-08
343.15 K	468.4	7.79e-08
353.15 K	474.5	7.67e-08
363.15 K	480.7	7.55e-08
373.15 K	486.8	7.43e-08
383.15 K	–	7.3e-08
393.15 K	–	7.18e-08
403.15 K	–	7.06e-08
413.15 K	–	6.94e-08
423.15 K	–	6.82e-08

CCCCCCCCC(=O)OC [methyl nonanoate]
Conditions	molar heat capacity at constant pressure, [2] [J/K/mol]	thermal diffusivity, [1] [m2/s]
303.15 K	351.7	8.01e-08
313.15 K	354.7	7.89e-08
323.15 K	358.6	7.78e-08
333.15 K	363.1	7.66e-08
343.15 K	367.9	7.54e-08
353.15 K	372.8	7.43e-08
363.15 K	377.6	7.31e-08
373.15 K	382	7.19e-08
383.15 K	–	7.08e-08

CCCCCCC(=O)OC [methyl heptanoate]
Conditions	molar heat capacity at constant pressure, [2] [J/K/mol]	thermal diffusivity, [1] [m2/s]
303.15 K	289.2	7.82e-08
313.15 K	292.5	7.71e-08
323.15 K	296.2	7.59e-08
333.15 K	300.1	7.48e-08
343.15 K	304.3	7.36e-08
353.15 K	308.6	7.25e-08
363.15 K	312.8	7.14e-08
373.15 K	316.9	–

CCCCCCCCCC(=O)OC [methyl decanoate]
Conditions	molar heat capacity at constant pressure, [2] [J/K/mol]	thermal diffusivity, [1] [m2/s]
303.15 K	384.7	8.1e-08
313.15 K	387.6	7.99e-08
323.15 K	391.8	7.87e-08
333.15 K	396.7	7.75e-08
343.15 K	401.9	7.64e-08
353.15 K	407.3	7.52e-08
363.15 K	412.4	7.4e-08
373.15 K	417.2	7.28e-08
383.15 K	–	7.17e-08
393.15 K	–	7.05e-08
403.15 K	–	6.93e-08

CCCCCCCC(=O)OC [methyl octanoate]
Conditions	molar heat capacity at constant pressure, [2] [J/K/mol]	thermal diffusivity, [1] [m2/s]
303.15 K	316.6	7.92e-08
313.15 K	320.5	7.81e-08
323.15 K	324.4	7.69e-08
333.15 K	328.7	7.57e-08
343.15 K	333.2	7.46e-08
353.15 K	337.8	7.34e-08
363.15 K	342.8	7.22e-08
373.15 K	347	7.11e-08
383.15 K	–	6.99e-08
